Test results: patent US20110287439A1, “CLAS[…]” (reMYND NV, priority 2008, published 2011)

Test system: Yeast strain SKAM4 RAD54-LacZ reporter
Assay: Radarscreen with luminescence and S9 metabolic activation
Settings: analysed with S9 compared with without S9; 6 hours at 30° C.; 2% S9
Description: Yeast strain SKAM4 bears a RAD54-LacZ reporter construct, which is responsive to agents that affect the integrity of its genomic DNA. Compounds supplied to the growth medium can be evaluated for genotoxicity by determining their effect on reporter gene expression. Reporter activity is measured by adding Beta-Glo® cell lyses buffer, containing a beta-galactosidase substrate, to the yeast culture. The substrate is cleaved by beta-galactosidase to luciferin and galactose. Luciferin is then used in a luciferase reaction to generate light. Metabolic activation of the compounds is obtained by adding post mitochondrial supernatant S9. […]
OD595 of the overnight cultures has to be determined. […]
600 μl S9-mixture is added to 5280 μl of the diluted culture and 600 μl buffer without S9 to 5280 μl of the diluted culture (these are quantities to fill 1 plate). […] The OD595 is measured after the plates have been vortexed rigorously to resuspend the precipitated yeast cells. […]
50 μl Beta-Glo® cell lyses buffer is added to the wells and the plate is vortexed for 45-60 min whereafter luminescence is measured. […]
Luminescence read out blanc correction is performed by subtraction of the luminescence value of medium without yeast cells from the luminescence read out of a sample with compound and dividing it by the corrected and normalized OD595 value. […]

CC[n+]1c(-c2ccccc2)c2cc(N)ccc2c2ccc(N)cc21 [ethidium bromide]
signal (induction factor): higher signal when analysed with S9 than when analysed without S9
